Test results published in ChEMBL document CHEMBL4414672, “Synthesis of certain benzothieno[3,2-d]pyrimidine derivatives as a selective SIRT2 inhibitors” (Eur J Med Chem, 2020).
In brackets after ≈: the same amount, converted by molar mass.

What was measured:
UO-31 [1] = assay: Cytotoxicity against human UO31 cells assessed as reduction in cell viability after 24 hrs by MTT assay; format: functional, cell-based; details: UO-31, 24 h
MCF7 [2] = assay: Cytotoxicity against human MCF7 cells assessed as reduction in cell viability after 24 hrs by MTT assay; format: functional, cell-based; details: MCF7, 24 h
MDA-MB-231 = assay: Growth inhibition of human MDA-MB-231 cells at 10^-5 M incubated for 48 hrs by sulforhodamine B assay; format: functional; details: MDA-MB-231, 48 h, read-out: GI
SW-620 = assay: Growth inhibition of human SW620 cells at 10^-5 M incubated for 48 hrs by sulforhodamine B assay; format: functional; details: SW-620, 48 h, read-out: GI
NCI-H522 = assay: Growth inhibition of human NCI-H522 cells at 10^-5 M incubated for 48 hrs by sulforhodamine B assay; format: functional; details: NCI-H522, 48 h, read-out: GI
COLO 205 = assay: Growth inhibition of human COLO205 cells at 10^-5 M incubated for 48 hrs by sulforhodamine B assay; format: functional; details: COLO 205, 48 h, read-out: GI
T47D = assay: Growth inhibition of human T47D cells at 10^-5 M incubated for 48 hrs by sulforhodamine B assay; format: functional; details: read-out: GI
A498 = assay: Growth inhibition of human A498 cells at 10^-5 M incubated for 48 hrs by sulforhodamine B assay; format: functional; details: A498, 48 h, read-out: GI
MCF7 [3] = assay: Growth inhibition of human MCF7 cells at 10^-5 M incubated for 48 hrs by sulforhodamine B assay; format: functional; details: MCF7, 48 h, read-out: GI
HCC 2998 = assay: Growth inhibition of human HCC2998 cells at 10^-5 M incubated for 48 hrs by sulforhodamine B assay; format: functional; details: HCC 2998, 48 h, read-out: GI
K562 = assay: Growth inhibition of human K562 cells at 10^-5 M incubated for 48 hrs by sulforhodamine B assay; format: functional; details: K562, 48 h, read-out: GI
PC-3 = assay: Growth inhibition of human PC3 cells at 10^-5 M incubated for 48 hrs by sulforhodamine B assay; format: functional; details: PC-3, 48 h, read-out: GI
EKVX = assay: Growth inhibition of human EKVX cells at 10^-5 M incubated for 48 hrs by sulforhodamine B assay; format: functional; details: read-out: GI
OVCAR-5 = assay: Growth inhibition of human OVCAR5 cells at 10^-5 M incubated for 48 hrs by sulforhodamine B assay; format: functional; details: OVCAR-5, 48 h, read-out: GI
HOP-92 = assay: Growth inhibition of human HOP92 cells at 10^-5 M incubated for 48 hrs by sulforhodamine B assay; format: functional; details: HOP-92, 48 h, read-out: GI
HOP-62 = assay: Growth inhibition of human HOP62 cells at 10^-5 M incubated for 48 hrs by sulforhodamine B assay; format: functional; details: HOP-62, 48 h, read-out: GI
OVCAR-8 = assay: Growth inhibition of human OVCAR8 cells at 10^-5 M incubated for 48 hrs by sulforhodamine B assay; format: functional; details: OVCAR-8, 48 h, read-out: GI
DU-145 = assay: Growth inhibition of human DU145 cells at 10^-5 M incubated for 48 hrs by sulforhodamine B assay; format: functional; details: DU-145, 48 h, read-out: GI
HCT-116 = assay: Growth inhibition of human HCT116 cells at 10^-5 M incubated for 48 hrs by sulforhodamine B assay; format: functional; details: HCT-116, 48 h, read-out: GI
HL-60(TB) = assay: Growth inhibition of human HL-60(TB) cells at 10^-5 M incubated for 48 hrs by sulforhodamine B assay; format: functional; details: HL-60, 48 h, read-out: GI
SR = assay: Growth inhibition of human SR cells at 10^-5 M incubated for 48 hrs by sulforhodamine B assay; format: functional; details: read-out: GI
BT-549 = assay: Growth inhibition of human BT549 cells at 10^-5 M incubated for 48 hrs by sulforhodamine B assay; format: functional; details: BT-549, 48 h, read-out: GI
Hs-578T = assay: Growth inhibition of human Hs 578T cells at 10^-5 M incubated for 48 hrs by sulforhodamine B assay; format: functional; details: read-out: GI
HT-29 = assay: Growth inhibition of human HT-29 cells at 10^-5 M incubated for 48 hrs by sulforhodamine B assay; format: functional; details: HT-29, 48 h, read-out: GI
A549 = assay: Growth inhibition of human A549/ATCC cells at 10^-5 M incubated for 48 hrs by sulforhodamine B assay; format: functional; details: A549, 48 h, read-out: GI
NCI-H460 = assay: Growth inhibition of human NCI-H460 cells at 10^-5 M incubated for 48 hrs by sulforhodamine B assay; format: functional; details: NCI-H460, 48 h, read-out: GI
MDA-MB-468 = assay: Growth inhibition of human MDA-MB-468 cells at 10^-5 M incubated for 48 hrs by sulforhodamine B assay; format: functional; details: MDA-MB-468, 48 h, read-out: GI
NCI-H23 = assay: Growth inhibition of human NCI-H23 cells at 10^-5 M incubated for 48 hrs by sulforhodamine B assay; format: functional; details: NCI-H23, 48 h, read-out: GI
NCI-H322M = assay: Growth inhibition of human NCI-H322M cells at 10^-5 M incubated for 48 hrs by sulforhodamine B assay; format: functional; details: read-out: GI
SK-OV-3 = assay: Growth inhibition of human SKOV3 cells at 10^-5 M incubated for 48 hrs by sulforhodamine B assay; format: functional; details: SK-OV-3, 48 h, read-out: GI
786-0 = assay: Growth inhibition of human 786-0 cells at 10^-5 M incubated for 48 hrs by sulforhodamine B assay; format: functional; details: 786-0, 48 h, read-out: GI
MOLT-4 = assay: Growth inhibition of human MOLT4 cells at 10^-5 M incubated for 48 hrs by sulforhodamine B assay; format: functional; details: MOLT-4, 48 h, read-out: GI
CAKI-1 = assay: Growth inhibition of human Caki1 cells at 10^-5 M incubated for 48 hrs by sulforhodamine B assay; format: functional; details: CAKI-1, 48 h, read-out: GI
RXF 393 = assay: Growth inhibition of human RXF393 cells at 10^-5 M incubated for 48 hrs by sulforhodamine B assay; format: functional; details: RXF 393, 48 h, read-out: GI
SN12C = assay: Growth inhibition of human SN12C cells at 10^-5 M incubated for 48 hrs by sulforhodamine B assay; format: functional; details: read-out: GI
ACHN = assay: Growth inhibition of human ACHN cells at 10^-5 M incubated for 48 hrs by sulforhodamine B assay; format: functional; details: read-out: GI
IGROV-1 = assay: Growth inhibition of human IGROV1 cells at 10^-5 M incubated for 48 hrs by sulforhodamine B assay; format: functional; details: IGROV-1, 48 h, read-out: GI
CCRF-CEM = assay: Growth inhibition of human CCRF-CEM cells at 10^-5 M incubated for 48 hrs by sulforhodamine B assay; format: functional; details: read-out: GI
TK-10 = assay: Growth inhibition of human TK10 cells at 10^-5 M incubated for 48 hrs by sulforhodamine B assay; format: functional; details: TK-10, 48 h, read-out: GI
NCI/ADR-RES = assay: Growth inhibition of human NCI/ADR-RES cells at 10^-5 M incubated for 48 hrs by sulforhodamine B assay; format: functional; details: read-out: GI
NCI-H226 = assay: Growth inhibition of human NCI-H226 cells at 10^-5 M incubated for 48 hrs by sulforhodamine B assay; format: functional; details: NCI-H226, 48 h, read-out: GI
HCT-15 = assay: Growth inhibition of human HCT15 cells at 10^-5 M incubated for 48 hrs by sulforhodamine B assay; format: functional; details: HCT-15, 48 h, read-out: GI
KM12 = assay: Growth inhibition of human KM12 cells at 10^-5 M incubated for 48 hrs by sulforhodamine B assay; format: functional; details: KM12, 48 h, read-out: GI
OVCAR-3 = assay: Growth inhibition of human OVCAR3 cells at 10^-5 M incubated for 48 hrs by sulforhodamine B assay; format: functional; details: OVCAR-3, 48 h, read-out: GI
OVCAR-4 = assay: Growth inhibition of human OVCAR4 cells at 10^-5 M incubated for 48 hrs by sulforhodamine B assay; format: functional; details: OVCAR-4, 48 h, read-out: GI
UO-31 [4] = assay: Growth inhibition of human UO31 cells at 10^-5 M incubated for 48 hrs by sulforhodamine B assay; format: functional; details: UO-31, 48 h, read-out: GI

Structure (SMILES): O=c1[nH]c(=S)[nH]c(-c2ccccc2)c1Cc1c(O)ccc2ccccc12 [CAMBINOL]
- IC50 (UO-31 [1]): 98.6 µg/mL (≈ 274 µM)
- IC50 (MCF7 [2]): 33.9 µg/mL (≈ 94.2 µM)

Structure (SMILES): O=C1CSC2=Nc3c(sc4ccc(Cl)cc34)C(c3cccc([N+](=O)[O-])c3)N12 (stereo unspecified)
- inhibition of growth at 10 µM (MDA-MB-231): 10.8%
- inhibition of growth at 10 µM (SW-620): -3.15%
- inhibition of growth at 10 µM (NCI-H522): 9.11%
- inhibition of growth at 10 µM (COLO 205): -4.05%
- inhibition of growth at 10 µM (T47D): 8.22%
- inhibition of growth at 10 µM (A498): -13.1%
- inhibition of growth at 10 µM (MCF7 [3]): 17.9%
- inhibition of growth at 10 µM (HCC 2998): -24.4%
- inhibition of growth at 10 µM (K562): 6.39%
- inhibition of growth at 10 µM (PC-3): 1.11%
- inhibition of growth at 10 µM (EKVX): 21.2%
- inhibition of growth at 10 µM (OVCAR-5): -6.83%
- inhibition of growth at 10 µM (HOP-92): -8.65%
- inhibition of growth at 10 µM (HOP-62): 11%
- inhibition of growth at 10 µM (OVCAR-8): 0.58%
- inhibition of growth at 10 µM (DU-145): -14.2%
- inhibition of growth at 10 µM (HCT-116): -0.32%
- inhibition of growth at 10 µM (HL-60(TB)): 5.48%
- inhibition of growth at 10 µM (SR): 17.6%
- inhibition of growth at 10 µM (BT-549): -21.8%
- inhibition of growth at 10 µM (Hs-578T): -2.09%
- inhibition of growth at 10 µM (HT-29): -8.35%
- inhibition of growth at 10 µM (A549): -1.88%
- inhibition of growth at 10 µM (NCI-H460): -3.7%
- inhibition of growth at 10 µM (MDA-MB-468): 4.8%
- inhibition of growth at 10 µM (NCI-H23): 10.5%
- inhibition of growth at 10 µM (NCI-H322M): 5.33%
- inhibition of growth at 10 µM (SK-OV-3): 7.65%
- inhibition of growth at 10 µM (786-0): -7.37%
- inhibition of growth at 10 µM (MOLT-4): 8.28%
- inhibition of growth at 10 µM (CAKI-1): 20%
- inhibition of growth at 10 µM (RXF 393): -10.1%
- inhibition of growth at 10 µM (SN12C): 2.31%
- inhibition of growth at 10 µM (ACHN): 3.93%
- inhibition of growth at 10 µM (IGROV-1): 17.3%
- inhibition of growth at 10 µM (CCRF-CEM): -12%
- inhibition of growth at 10 µM (TK-10): -14.8%
- inhibition of growth at 10 µM (NCI/ADR-RES): 12.2%
- inhibition of growth at 10 µM (NCI-H226): 13.7%
- inhibition of growth at 10 µM (HCT-15): -1.95%
- inhibition of growth at 10 µM (KM12): -3.54%
- inhibition of growth at 10 µM (OVCAR-3): 0.32%
- inhibition of growth at 10 µM (OVCAR-4): 2.1%
- inhibition of growth at 10 µM (UO-31 [4]): 38.3%
